Data on six compounds can be found in US12312329B2, “Aminopyrimidine compound used for inhibiting activity of protein kinase” (Shenzhen TargetRx, Inc., priority 2018, dated 2025).

Series [1] deals with lung cancer cell HCC827 (Del19). Nature of the series: Cytotoxicity assay (MTS cell viability), HCC827. It is filed as cell-based. As to conditions: Homo sapiens, 72 hours. The procedure: (§1) In vitro anti-proliferation activity of the compound of the present disclosure on three tumor cell lines cultured in vitro was detected by the MTS method.
(§2) Cell lines: skin cancer cell A431 (purchased from the American Type Culture Collection (ATCC)); lung cancer cell NCI-H1975 (purchased from the American Type Culture Collection (ATCC)) and HCC827 (purchased from the American Type Culture Collection (ATCC)); all were cultured with RPM11640 medium containing 10% fetal bovine serum, 100 U/ml penicillin, and […] streptomycin.
(§3) Reagents and materials: RPMI-1640 (GIBCO, Cat. No A10491-01); fetal bovine serum (GIBCO, Cat. No 10099141): 0.25% trypsin-EDTA (GIBCO, Cat. No 25200); penicillin-streptomycin; liquid (GIBCO, Cat. No 15140-122); DMSO (Sigma, Cat. No D2650); MTS Assay Kit (Promega, Cat. No G3581), 96-well plate (Corning, Cat. No 3365).
(§4) Formulation of compound: The test compound was dissolved in DMSO to prepare a 20 mM stock solution, which was stored at −20° C. The stock solution was then serially diluted 3-fold in DMSO to obtain ten concentrations. After the compound was added, a 4-fold dilution was performed with cell culture medium.
(§5) MTS cell viability assay: cells in logarithmic growth phase was digested with 0.25% trypsin-EDTA, and 150 μl of the cells was inoculated in a 96-well plate at an optimized density. After 24 hours, the compound diluted 4 fold in the medium was added, 50 μl/well (generally ten concentrations were selected: 100, 33.3, 11.1, 3.70, 1.23, 0.412, 0.137, 0.0457, 0.0152, 0.00508 μM). The same volume of 0.5% DMSO was added in wells as a control. After the cells were cultured for another 72 hours, the cell viability was detected by MTS.
(§6) Specific procedure: The cells were adhered. The medium was discarded. A mixture containing 20 μL MTS and 100 μl medium was added to each well. After incubating for 1-4 hours in an incubator, OD490 was detected, with the OD650 value as a reference. A dose-effect curve was made using GraphPad Prism software and IC50 was calculated.

For the next series, the target named is WT EGFR (Homo sapiens (Human), UniProt P00533). Nature of the series: Kinase inhibition assay (HTRF Kinase TK), WT EGFR. The format is biochemical. The source says:
(§7) WT EGFR (Carna, Cat. No 08-115), EGFR[L858R] (Carna, Cat. No 08-502), EGFR[L858R/T790M] (Carna, Cat. No 08-510), ATP (Sigma, Cat. No A7699-1G), DMSO (Sigma, Cat. No D2650), 96-well plate (Corning, Cat. No 3365), 384-well plate (Greiner, Cat. No 784076). HTRF Kinase TK Kit (Cisbio. Cat. No 62TK0PEJ), erlotinib (Selleckchem, Cat. No S7787), EGFR[d746-750] (Life Technologies, Cat. No PV6178), 5× kinase buffer A (Life Technologies, Cat. No PV3186), kinase tracer 199 (Life Technologies, Cat. No PV5830), LanthaScreen® Eu-anti-GST antibody (Life Technologies, Cat. No PV5594).
(§8) Formulation of compound: The test compound was dissolved in DMSO to prepare a 20 mM stock solution. The stock solution was then serially diluted 3-fold in DMSO to obtain ten concentrations. After the compound was added, a 10-fold dilution was performed with buffer.
(§9) WT EGFR and EGFR[L858R/T790M] kinase detection: In 5× kinase buffer A, WT EGFR or EGFR[L858R/T790M] kinase was mixed with different concentrations of compounds prepared by pre-dilution for 10 minutes. Each concentration was tested in duplicate. The corresponding substrate and ATP were added, and reaction was performed at room temperature for 20 minutes (negative and positive controls were provided: the negative control was a blank control, and the positive control was erlotinib). After completion of the reaction, detection reagents (reagents in the HTRF Kinase TK kit) were added. After incubating for 30 minutes at room temperature, enzyme activity in the presence of various concentrations of the compounds of the present disclosure was determined by Evnvision microplate reader, and inhibitory activity of different concentrations of the compounds on enzyme activity was calculated. The inhibitory activity of different concentrations of the compounds on enzyme activity was then fitted by Graphpad 5.0 software according to the four-parameter equation, and the IC50 value was calculated.
A general note: In TR-FRET formats the signal depends on donor and acceptor labels being close together.

Series [2] deals with lung cancer cell NCI-H1975 (L858R/T790M). Nature of the series: Cytotoxicity assay (MTS cell viability), NCI-H1975. The format is cell-based. The conditions noted are these: Homo sapiens, 72 hours. The method, then:
as §1, §2, §3, §4, §5, §6

Another series deals with EGFR[L858R/T790M] (Homo sapiens (Human), UniProt P00533, L858R/T790M). Nature of the series: Kinase inhibition assay (HTRF Kinase TK), EGFR[L858R/T790M]. The format is biochemical.
Sequence of EGFR[L858R/T790M] (P00533 25-1210 T790M/L858R): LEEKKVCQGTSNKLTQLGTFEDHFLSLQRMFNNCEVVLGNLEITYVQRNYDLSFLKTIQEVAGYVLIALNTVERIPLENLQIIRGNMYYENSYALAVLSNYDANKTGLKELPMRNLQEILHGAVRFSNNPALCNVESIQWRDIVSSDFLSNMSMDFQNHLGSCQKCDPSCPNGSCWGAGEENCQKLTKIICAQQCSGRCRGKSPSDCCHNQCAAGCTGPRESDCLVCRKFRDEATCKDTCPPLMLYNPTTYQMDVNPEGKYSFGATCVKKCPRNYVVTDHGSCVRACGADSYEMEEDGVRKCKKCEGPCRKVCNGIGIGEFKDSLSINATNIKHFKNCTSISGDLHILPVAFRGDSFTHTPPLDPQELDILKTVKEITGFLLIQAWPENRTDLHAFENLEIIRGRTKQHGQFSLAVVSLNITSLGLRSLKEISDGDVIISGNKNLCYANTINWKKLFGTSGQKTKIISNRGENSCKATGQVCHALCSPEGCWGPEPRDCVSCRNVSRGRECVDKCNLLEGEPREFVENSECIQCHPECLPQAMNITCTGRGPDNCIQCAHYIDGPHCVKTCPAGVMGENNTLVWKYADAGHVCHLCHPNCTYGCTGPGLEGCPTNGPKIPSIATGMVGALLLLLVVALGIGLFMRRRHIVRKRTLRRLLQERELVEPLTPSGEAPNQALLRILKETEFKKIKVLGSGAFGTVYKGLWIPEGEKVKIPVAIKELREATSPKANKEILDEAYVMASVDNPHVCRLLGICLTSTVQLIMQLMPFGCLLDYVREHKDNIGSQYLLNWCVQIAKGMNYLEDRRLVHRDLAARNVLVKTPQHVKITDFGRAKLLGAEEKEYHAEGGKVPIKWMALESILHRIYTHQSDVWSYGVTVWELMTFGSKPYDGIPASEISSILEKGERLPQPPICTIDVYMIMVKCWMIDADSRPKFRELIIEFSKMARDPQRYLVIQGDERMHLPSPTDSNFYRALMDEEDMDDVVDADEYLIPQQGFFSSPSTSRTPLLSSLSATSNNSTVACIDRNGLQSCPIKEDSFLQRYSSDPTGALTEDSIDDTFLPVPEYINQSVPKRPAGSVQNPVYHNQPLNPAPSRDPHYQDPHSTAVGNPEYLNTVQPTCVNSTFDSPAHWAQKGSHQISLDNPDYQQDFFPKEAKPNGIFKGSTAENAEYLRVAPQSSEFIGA
From the text: as §7, §8, §9

The next series deals with skin cancer cell A431. Nature of the series: Cytotoxicity assay (MTS cell viability), A431. The format is cell-based. The conditions noted are these: Homo sapiens, A-431, 72 hours. The procedure: as §1, §2, §3, §4, §5, §6
Series [3] can be described thus: Pharmacokinetic assay in rats. It is filed as in vivo, Sprague-Dawley rats. The conditions noted are these: rat; for AUC(0-t) / Cmax / Tmax / half-life / AUC(0-inf) / MRT inf / bioavailability: male, Sprague-Dawley, plasma; for AUC(0-inf): read-out: AUCINF_pred; for MRT inf: read-out: MRTINF_pred; for bioavailability: PO 10 mg/kg vs IV 0.5 mg/kg. The method, then: Six male Sprague-Dawley rats (7-8 weeks old, and weighing about 210 g) were divided into 2 groups, 3 rats in each group. A single dose of compounds (10 mg/kg orally) was administered intravenously or orally to compare their pharmacokinetics.
The rats were fed with standard feed and water. Fasting was started 16 hours before the assay. The drug was dissolved in PEG400 and dimethyl sulfoxide. Blood was collected from the orbit. The time points for blood collection were 0.083 hours, 0.25 hours, 0.5 hours, 1 hour, 2 hours, 4 hours, 6 hours, 8 hours, 12 hours and 24 hours after administration.
The rats were briefly anesthetized after inhaling diethyl ether, and 300 μL of blood sample was collected from the orbit into a test tube containing 30 μL of 1% heparin salt solution. Before use, the test tube was oven dried overnight at 60° C. After the blood sample was collected at the last time point, the rats were anesthetized with diethyl ether and then sacrificed.
Immediately after the blood sample was collected, the test tube was gently inverted at least 5 times to ensure sufficient mixing, and then placed on ice. The blood sample was centrifuged at 5000 rpm at 4° C. for 5 minutes to separate the plasma from the red blood cells. 100 μL of plasma was aspirated into a clean plastic centrifuge tube with a pipette, and the name of the compound and time point were marked. The plasma was stored at −80° C. before analysis. The concentration of the compound of the present disclosure in plasma was determined by LC-MS/MS. The pharmacokinetic parameters were calculated based on the blood drug concentration of each animal at different time points.

Each structure is given as a SMILES string. Read-outs that look alike come from different tables or passages of the source.

Sequence of WT EGFR (P00533 25-1210): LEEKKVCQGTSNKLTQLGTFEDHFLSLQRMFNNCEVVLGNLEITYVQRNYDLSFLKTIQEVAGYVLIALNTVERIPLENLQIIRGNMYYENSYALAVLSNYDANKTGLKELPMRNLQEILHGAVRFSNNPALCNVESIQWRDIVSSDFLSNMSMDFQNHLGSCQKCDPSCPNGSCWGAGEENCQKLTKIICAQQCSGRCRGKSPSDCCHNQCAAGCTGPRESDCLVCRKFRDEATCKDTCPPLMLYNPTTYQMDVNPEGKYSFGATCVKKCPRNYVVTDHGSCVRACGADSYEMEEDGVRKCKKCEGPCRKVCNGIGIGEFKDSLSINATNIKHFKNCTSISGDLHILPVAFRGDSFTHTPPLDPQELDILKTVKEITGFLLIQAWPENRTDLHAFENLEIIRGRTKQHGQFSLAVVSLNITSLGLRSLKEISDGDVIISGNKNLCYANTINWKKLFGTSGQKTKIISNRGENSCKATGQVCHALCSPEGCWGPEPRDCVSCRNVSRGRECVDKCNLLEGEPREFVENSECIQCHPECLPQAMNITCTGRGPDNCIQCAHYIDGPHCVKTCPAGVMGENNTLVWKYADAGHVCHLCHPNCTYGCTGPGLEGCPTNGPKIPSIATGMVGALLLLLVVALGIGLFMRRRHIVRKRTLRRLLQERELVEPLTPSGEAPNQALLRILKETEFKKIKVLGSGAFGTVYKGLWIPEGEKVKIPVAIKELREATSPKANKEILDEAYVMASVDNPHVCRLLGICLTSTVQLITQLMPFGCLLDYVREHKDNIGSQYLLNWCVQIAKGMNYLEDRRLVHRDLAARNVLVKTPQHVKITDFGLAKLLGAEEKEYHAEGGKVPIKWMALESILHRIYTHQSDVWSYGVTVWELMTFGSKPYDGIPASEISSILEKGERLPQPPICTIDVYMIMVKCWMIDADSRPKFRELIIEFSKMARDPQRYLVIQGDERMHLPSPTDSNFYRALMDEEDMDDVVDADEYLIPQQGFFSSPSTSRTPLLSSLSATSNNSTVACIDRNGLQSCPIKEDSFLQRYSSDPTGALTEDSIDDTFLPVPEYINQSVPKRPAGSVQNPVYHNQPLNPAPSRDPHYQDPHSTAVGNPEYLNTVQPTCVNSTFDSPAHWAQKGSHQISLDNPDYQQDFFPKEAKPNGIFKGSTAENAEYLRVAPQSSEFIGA

`C=CC(=O)Nc1cc(Nc2nccc(-n3cc(CN(C)C)c(-c4ccccc4)n3)n2)c(OC(C)C)nc1N1CCOCC1` [Compound T-4, N-(5-((4-(4-((dimethylamino)methyl)-3-phenyl-1H-pyrazol-1-yl)-pyrimidin-2-yl)amino)-6-isopropoxy-2-morpholinopyridin-3-yl)acrylamide]: the IC50 in series [1] worked out at 5.06 nM; on WT EGFR, 1.98 nM; in series [2] it was 13.2 nM; on EGFR[L858R/T790M] it was 0.81 nM; in the series with skin cancer cell A431, 130 nM.

Turning to `C=CC(=O)Nc1cc(Nc2nccc(-n3cc(CN(C)C)c(-c4ccccc4)n3)n2)c(OC)cc1N1CCOCC1` [YH25448, reference compound], the “Cl_pred” value in series [3] (IV 0.5 mg/kg) is given as 1.05 L/h/kg; in series [3] (PO 10 mg/kg) it was 5.65 L/h/kg. The “Vz_pred” value is 5.73 L/kg in series [3] (IV 0.5 mg/kg) and 61.56 L/kg in series [3] (PO 10 mg/kg).

On to `C=CC(=O)Nc1cc(Nc2nccc(-c3cc(CN(C)C)n(-c4ccccc4)n3)n2)c(OC)cc1N1CCOCC1` [Compound T-7, N-(5-((4-(5-((dimethylamino)methyl)-1-phenyl-1H-pyrazol-3-yl)pyrimidin-2-yl)amino)-4-methoxy-2-morpholinophenyl)acrylamide], for which the IC50 in series [1] turned out to be 4.44 nM; at WT EGFR it was 0.55 nM; in series [2], 23.5 nM; against EGFR[L858R/T790M], 1.15 nM; in the series on skin cancer cell A431, 226 nM.

For `C=CC(=O)Nc1cc(Nc2ncc(C)c(-n3cc(CN(C)C)c(-c4ccccc4)n3)n2)c(OC)nc1N1CCOCC1` [Compound T-3, N-(5-((4-(4-((dimethylamino)methyl)-3-phenyl-H-pyrazol-1-yl)-5-methylpyrimidin-2-yl)amino)-6-methoxy-2-morpholinopyridin-3-yl)acrylamide], the IC50 in series [1] was 12.1 nM; on WT EGFR, 6.29 nM; in series [2], 21.9 nM; against EGFR[L858R/T790M], 0.6 nM; in the series with skin cancer cell A431 it was 342 nM.

In turn, `C=CC(=O)Nc1cc(Nc2ncc(F)c(-n3cc(CN(C)C)c(-c4ccccc4)n3)n2)c(OC)nc1N1CCOCC1` [Compound T-2, N-(5-((4-(4-((dimethylamino)methyl)-3-phenyl-1H-pyrazol-1-yl)-5-fluoropyrimidin-2-yl)amino)-6-methoxy-2-morpholinopyridin-3-yl) acrylamide] gave an IC50 in series [1] of 8.25 nM. Besides, the midpoint of inhibition on WT EGFR, the IC50, lay at 3.33 nM. For the same compound, the midpoint of inhibition in series [2], the IC50, lay at 9.51 nM. Besides, the IC50 on EGFR[L858R/T790M] is 0.44 nM. This compound showed an IC50 in the series on skin cancer cell A431 of 1410 nM. Further, in series [3] (IV 0.5 mg/kg), the AUC(0-t) came out at 284 ng·h/mL, the Cmax amounted to 268 ng/mL, the time of peak concentration (Tmax) was found to be 0.08 h and the half-life was 130 min. Further, in series [3] (IV 0.5 mg/kg), the AUC(0-inf) stood at 289 ng·h/mL, the MRT inf was found to be 1.95 h, the “Cl_pred” value was 1.75 L/h/kg and the “Vz_pred” value is listed as 5.49 L/kg. Besides, in series [3] (PO 10 mg/kg), the AUC(0-t) turned out to be 753 ng·h/mL, the maximum concentration (Cmax) is 69.3 ng/mL, the time to peak (Tmax) was determined as 2.33 h and the half-life is 384 min. In series [3] (PO 10 mg/kg), the AUC(0-inf) worked out at 840 ng·h/mL, the MRT inf is 7.67 h, the “Cl_pred” value is 12.05 L/h/kg and the “Vz_pred” value worked out at 111.2 L/kg. This compound also yielded a bioavailability in series [3] of 25.1%.

In the case of `C=CC(=O)Nc1cc(Nc2nccc(-n3cc(CN(C)C)c(-c4ccccc4)n3)n2)c(OC)nc1N1CCOCC1` [Compound T-1, N-(5-((4-(4-((dimethylamino)methyl)-3-phenyl-1H-pyrazol-1-yl)pyrimidin-2-yl)amino)-6-methoxy-2-morpholinopyridin-3-yl)acrylamide], the IC50 in series [1] amounted to 3.64 nM. The IC50 on WT EGFR turned out to be 1.29 nM. Moreover, the IC50 in series [2] came out at 2.43 nM. On EGFR[L858R/T790M], this compound gave an IC50 of 0.4 nM. This compound also had an IC50 in the series with skin cancer cell A431 of 260 nM. In series [3] (IV 0.5 mg/kg), the exposure AUC(0-t) is 328 ng·h/mL, the Cmax was 246 ng/mL, the Tmax amounted to 0.08 h and the half-life is 168 min. Further, in series [3] (IV 0.5 mg/kg), the AUC(0-inf) was 341 ng·h/mL, the MRT inf came out at 2.32 h, the “Cl_pred” value was 1.47 L/h/kg and the “Vz_pred” value is listed as 5.94 L/kg. Besides, in series [3] (PO 10 mg/kg), the area under the curve AUC(0-t) came to 1430 ng·h/mL, the Cmax stood at 91.1 ng/mL, the Tmax worked out at 5.33 h and the half-life is 521 min. For the same compound, in series [3] (PO 10 mg/kg), the AUC(0-inf) worked out at 1790 ng·h/mL, the MRT inf was determined as 9.11 h, the “Cl_pred” value is reported as 5.85 L/h/kg and the “Vz_pred” value stood at 73.39 L/kg. This compound also came in with a bioavailability in series [3] of 21.8%.

The term IC50 denotes the concentration at which inhibition is half-maximal. For orientation: AUC(0-t) means the area under the concentration-time curve up to a stated or last time point. A low value points to low exposure. Usually Cmax stands for the peak of the concentration-time curve. The Tmax is the time at which the peak concentration occurs. As usually defined, the half-life is the time needed for the level to fall by half in the phase considered. Read a high half-life as slow loss. One may read the bioavailability as dose-corrected exposure relative to a reference, in per cent.
